{"source": "the supplement of paper PMC10307832", "assay_in_all_cases": "relative viability (nuclei count vs DMSO), 5 days (fraction); higher = more cells survive", "key": {"Sulindac + Pictilisib": {"compound": "CC1=C(CC(=O)O)c2cc(F)ccc2/C1=C\\c1ccc([S+](C)[O-])cc1 [Sulindac] + CS(=O)(=O)N1CCN(Cc2cc3nc(-c4cccc5[nH]ncc45)nc(N4CCOCC4)c3s2)CC1 [Pictilisib] (partner 1 µM)", "procedure,_shortened": "(§1)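 Cells from lung cancer lines were seeded into 1536-well plates and, one day later, dosed by pin tool. Treatments were either a single drug or a fixed dose of an anchor drug with five library-drug doses (not always all listed) in √10 steps. After 5 days, nuclei were stained in a one-step fixation (final 0.05% Triton X-100, 1% formaldehyde, 1 ug/ml Hoechst) and counted on 4× images, and relative viability is the treated-to-vehicle nuclei ratio, as the median of duplicate plates.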"}, "[1]": {"compound": "O=c1[nH]cc(F)c(=O)[nH]1 [5-Fluorouracil] + Cc1nc(NC(=O)N2CCC[C@H]2C(N)=O)sc1-c1ccnc(C(C)(C)C(F)(F)F)c1 [Alpelisib] (partner 2 µM)", "procedure,_shortened": "as §1"}, "[2]": {"compound": "CN[C@@H]1C[C@H]2O[C@@](C)([C@@H]1OC)n1c3ccccc3c3c4c(c5c6ccccc6n2c5c31)C(=O)NC4 [Staurosporine] + CS(=O)(=O)N1CCN(Cc2cc3nc(-c4cccc5[nH]ncc45)nc(N4CCOCC4)c3s2)CC1 [Pictilisib] (partner 1 µM)", "procedure,_shortened": "as §1"}, "Sulindac + OSI-027": {"compound": "CC1=C(CC(=O)O)c2cc(F)ccc2/C1=C\\c1ccc([S+](C)[O-])cc1 [Sulindac] + COc1cccc2cc(-c3nc([C@H]4CC[C@H](C(=O)O)CC4)n4ncnc(N)c34)[nH]c12 [OSI-027] (partner 0.5 µM)", "procedure,_shortened": "as §1"}}, "data": [{"cell line": "UMC-11", "values": [{"measurement": "relative viability", "setting": "Sulindac + Pictilisib; first compound 0.08 µM", "value": 1.18}, {"measurement": "relative viability", "setting": "Sulindac + Pictilisib; first compound 0.253 µM", "value": 0.816}, {"measurement": "relative viability", "setting": "Sulindac + Pictilisib; first compound 0.8 µM", "value": 0.704}, {"measurement": "relative viability", "setting": "Sulindac + Pictilisib; first compound 2.53 µM", "value": 0.667}, {"measurement": "relative viability", "setting": "Sulindac + Pictilisib; first compound 8 µM", "value": 0.793}, {"measurement": "relative viability", "setting": "[1]; first compound 0.02 µM", "value": 0.792}, {"measurement": "relative viability", "setting": "[1]; first compound 0.2 µM", "value": 0.645}, {"measurement": "relative viability", "setting": "[1]; first compound 2 µM", "value": 0.326}, {"measurement": "relative viability", "setting": "[2]; first compound 0.005 µM", "value": 0.841}, {"measurement": "relative viability", "setting": "[2]; first compound 0.01581 µM", "value": 0.115}, {"measurement": "relative viability", "setting": "[2]; first compound 0.05 µM", "value": 0.207}, {"measurement": "relative viability", "setting": "[2]; first compound 0.1581 µM", "value": 0.101}, {"measurement": "relative viability", "setting": "[2]; first compound 0.5 µM", "value": 0.0718}, {"measurement": "relative viability", "setting": "Sulindac + OSI-027; first compound 0.08 µM", "value": 0.624}, {"measurement": "relative viability", "setting": "Sulindac + OSI-027; first compound 0.253 µM", "value": 0.502}, {"measurement": "relative viability", "setting": "Sulindac + OSI-027; first compound 0.8 µM", "value": 0.371}, {"measurement": "relative viability", "setting": "Sulindac + OSI-027; first compound 2.53 µM", "value": 0.543}, {"measurement": "relative viability", "setting": "Sulindac + OSI-027; first compound 8 µM", "value": 0.487}]}]}
